The values that follow come from ChEMBL document CHEMBL4480383, “Synthesis of saccharocin from apramycin and evaluation of its ribosomal selectivity” (Medchemcomm, 2019).

One assay addresses Bacterial 70S ribosome. Description: Antiribosomal activity against wild type bacterial ribosomes assessed as inhibition of luciferase production by cell-free translation assay. The format is subcellular, Bacteria.
Assay [1] is described as follows: Antiribosomal activity against humanized bacterial ribosome incorporating complete decoding A site from human mitochondrial ribosome Mit13 assessed as inhibition of luciferase production by cell-free translation assay.
Assay [2] is described as follows: Antiribosomal activity against humanized bacterial ribosome incorporating A1555G mutant of human mitochondrial ribosome assessed as inhibition of luciferase production by cell-free translation assay.
Assay [3] is described as follows: Antiribosomal activity against humanized bacterial ribosome incorporating human cytoplasmic ribosome Cyt14 assessed as inhibition of luciferase production by cell-free translation assay.
Assay [4] can be described thus: Selectivity ratio of IC50 for antiribosomal activity against humanized bacterial ribosome incorporating complete decoding A site from human mitochondrial ribosome Mit13 to IC50 for antiribosomal activity against wild type bacterial ribosomes.
Assay [5] can be described thus: Selectivity ratio of IC50 for antiribosomal activity against humanized bacterial ribosome incorporating A1555G mutant of human mitochondrial ribosome to IC50 for antiribosomal activity against wild type bacterial ribosomes.
A short description of assay [6]: Selectivity ratio of IC50 for antiribosomal activity against humanized bacterial ribosome incorporating human cytoplasmic ribosome Cyt14 to IC50 for antiribosomal activity against wild type bacterial ribosomes.
The subject of a further assay is Escherichia coli. Description: Antibacterial activity against Escherichia coli AG001. Type of assay: functional.
The test system of a further assay is Klebsiella pneumoniae. As to the kind of experiment: Antibacterial activity against Klebsiella pneumoniae AG215. The format is functional.
For the next assay, the system named is Enterobacter cloacae. As to the kind of experiment: Antibacterial activity against Enterobacter cloacae AG290. Type of assay: functional.
A further assay has as its system Acinetobacter baumannii. As to the kind of experiment: Antibacterial activity against Acinetobacter baumannii AG309. Type of assay: functional.
In the next assay the test system is Pseudomonas aeruginosa. Description: Antibacterial activity against Pseudomonas aeruginosa AG220. Type of assay: functional.
Another assay concerns Staphylococcus aureus. Description: Antibacterial activity against Methicillin-resistant Staphylococcus aureus AG038. The format is functional.

In brackets after ≈: the same amount, converted by molar mass.

By IC50 is commonly meant the concentration at which inhibition is half-maximal. Turning to `CN[C@@H]1[C@@H](O[C@H]2O[C@H](CO)[C@@H](O)[C@H](O)[C@H]2O)O[C@H]2C[C@@H](N)[C@@H](O[C@H]3[C@H](O)[C@@H](O)[C@H](N)C[C@@H]3N)O[C@@H]2[C@@H]1O`, the IC50 at Bacterial 70S ribosome is 296 nM; in [1], over 500 µg/mL; in [2], 307 µg/mL (≈ 568 µM); in assay [3] it was 437 µg/mL (≈ 808 µM). The values for the Ratio IC50 in assay [4], in [5] and in assay [6] were over 3120, 1920 and 2730, respectively. The Activity with Escherichia coli was 8 to 16 µg/mL; with Klebsiella pneumoniae it was 4 µg/mL; with Enterobacter cloacae, 4 to 8 µg/mL; with Acinetobacter baumannii it was 8 µg/mL; in the assay on Pseudomonas aeruginosa, 8 to 16 µg/mL; with Staphylococcus aureus it was 32 µg/mL.
For the compound `CN[C@@H]1[C@@H](O[C@H]2O[C@H](CO)[C@@H](N)[C@H](O)[C@H]2O)O[C@H]2C[C@@H](N)[C@@H](O[C@H]3[C@H](O)[C@@H](O)[C@H](N)C[C@@H]3N)O[C@@H]2[C@@H]1O`, the IC50 at Bacterial 70S ribosome is 145 nM; in assay [1], 67 µg/mL (≈ 124 µM); in assay [2], 40 µg/mL (≈ 74.1 µM); in assay [3], 69 µg/mL (≈ 128 µM). Further, the Ratio IC50 was 859 in [4], 513 in assay [5] and 885 in [6]. Moreover, the Activity was 4 µg/mL in the assay on Escherichia coli; 1 to 2 µg/mL in the assay with Klebsiella pneumoniae; 2 to 4 µg/mL in the assay on Enterobacter cloacae; 4 µg/mL with Acinetobacter baumannii; 4 µg/mL with Pseudomonas aeruginosa; 4 µg/mL in the assay with Staphylococcus aureus.
